In patent US20170190744A1 (Vicuron Pharmaceuticals, Inc., priority 2015, published 2017):
Where “and” joins values, the source holds several entries; their conditions need not be identical. Equal entries are not always repeated.

Tests used:
[1] = system: human hepatic microsomes; type: in vitro ADME
[2] = system: skin and soft tissue infections (SSTI); test: Phase II trial in deep skin and soft tissue infections: clinical response; type: in vivo, human; details: for clinical success rate at FU: clinically-evaluable population; for clinical success rate, deep or complicated SSTI at baseline: exploratory subanalysis
Experimental: This randomized, controlled study evaluated the safety and efficacy of two dose regimens of dalbavancin.
There were 62 patients randomized into the study; all received at least one dose of study medication. Four study populations were evaluated for safety and efficacy and were defined as follows: The intent-to-treat (ITT) population included all patients who received at least one dose of study drug (all randomized study subjects).
The effectiveness of the three treatment regimens was determined by assessing the patients' clinical response and the documented or presumed microbiological responses. The primary efficacy endpoint was clinical response at the follow-up visit for the clinically evaluable population. Clinical response, for both EOT and FU visits, was categorized as success (cure or improvement) or failure (including indeterminate results). Patients classified as successes must not have received additional systemic antibacterial treatment for their infection. Failure was defined as persistence of one or more local or systemic signs and symptoms of SSTI such that treatment with new or additional systemic antibacterial agents was required for the SSTI.

[3] = system: Gram-positive pathogen; test: Phase II SSTI trial: microbiologic response, all organisms; type: in vivo, human; details: microbiologically-evaluable population
Experimental: Microbiological outcome, a secondary efficacy variable, was assessed in the subpopulation of patients who had microbiologically documented SSTI (i.e., at least one identified baseline pathogen). A microbiologic response was assessed for each Gram-positive pathogen identified at baseline (i.e., eradication, presumed eradication, persistence, presumed persistence). For patients for whom follow-up cultures were not performed, the microbiologic responses for baseline pathogens were presumed on the basis of the clinical response. Microbiologic response by patient at the EOT and FU visits was graded as success (i.e., all Gram-positive organisms eradicated or presumed eradicated) or failure (i.e., at least one Gram-positive organism persisted or presumed to have persisted, multiple pathogens with partial eradication). At both the EOT and FU visits, colonization and superinfection were assessed. At the FU visit, a patient's bacteriological response could also include recurrence.

[4] = Pharmacokinetics in hepatic impairment (VER001-12); type: in vivo, human; details: 1000 mg Day 1 and 500 mg Day 8, Mean (±SD)
Excerpt: The study enrolled otherwise healthy subjects with mild, moderate, or severe hepatic impairment (Child-Pugh scores 5 to 6, 7 to 9, and 10 to 15, respectively) and matched control subjects with normal hepatic function.

[5] = system: S. aureus; test: Murine thigh-infection model; type: in vivo, mice; details: for 1 Log Kill mg/kg/72 h / 2 Log Kill mg/kg/72 h: q 72 h regimen; for 1 log kill dose: SA29213, total dose over 6 days
Experimental: Each point represents the mean of 4 thighs. Five dose levels, ranging 16-fold were used.
Five different doses (two-fold increases) were used. Study against S. aureus utilized total dose (mg/kg/6 d) levels ranging from 30 to 480 mg/kg/6 d. […] Each point represents the mean of 4 thighs.
Each point represents the mean of four thighs.

[6] = both, human, in vivo
Experimental: Male and female subjects between ages 18 and 80 were eligible for enrollment. Subjects had to be within −10% to +50% of ideal body weight for their sex, height, and body frame.
The peak concentrations (Cmax) were obtained directly from the observed data. The area under the plasma concentration-time curve (AUC) were calculated using the linear trapezoidal rule.

[7] = system: S. aureus; test: MIC of study organisms (NCCLS microdilution); type: cell-based
[8] = Pharmacokinetics in renal impairment and ESRD (VER001-3, VER001-11, VER001-13)
Excerpt: Clinical Study VER001-13 examined subjects with mild and moderate renal impairment and Clinical Study VER001-11 examined subjects with severe renal impairment and subjects with end-stage renal disease (ESRD). Matched control subjects were enrolled in all studies. […] Subjects with ESRD were dependent on dialysis through the course of the study (3 times weekly).

CN[C@H]1C(=O)N[C@@H]2Cc3ccc(cc3)Oc3cc4cc(c3O[C@@H]3O[C@H](C(=O)O)[C@@H](O)[C@H](O)[C@H]3NC(=O)CCCCCCCCC(C)C)Oc3ccc(cc3Cl)[C@@H](O)[C@@H]3NC(=O)[C@H](NC(=O)[C@@H]4NC(=O)[C@@H](NC2=O)c2cc(cc(O)c2Cl)Oc2cc1ccc2O)c1ccc(O)c(c1)-c1c(O[C@H]2O[C@H](CO)[C@@H](O)[C@H](O)[C@@H]2O)cc(O)cc1[C@@H](C(=O)NCCCN(C)C)NC3=O [Dalbavancin]
effect on metabolism of marker substrates [1]: did not affect the metabolism of marker substrates
clinical success rate at FU ([2]; single-dose dalbavancin (1100 mg IV day 1)): 61.5%
clinical success rate at FU ([2]; two-dose dalbavancin (1 g IV day 1, 500 mg IV day 8)): 94.1% and 94%
clinical success rate, deep or complicated SSTI at baseline ([2]; single-dose dalbavancin): 58.3%
clinical success rate, deep or complicated SSTI at baseline ([2]; two-dose dalbavancin): 93.8%
eradication/presumed eradication rate at FU, all organisms ([3]; single-dose dalbavancin): 58%
microbiologic success rate at EOT ([3]; single-dose dalbavancin): 38.5%
microbiologic success rate at FU ([3]; single-dose dalbavancin): 27.3%
eradication/presumed eradication rate at FU, all organisms ([3]; two-dose dalbavancin): 92%
microbiologic success rate at EOT ([3]; two-dose dalbavancin): 72.7%
microbiologic success rate at FU ([3]; two-dose dalbavancin): 72.7%
t1/2 ([4]; Mild Hepatic Impairment): 323 (27) h
t1/2 ([4]; Moderate Hepatic Impairment): 320 (24) h
t1/2 ([4]; Normal Hepatic Function): 321 (24) h
t1/2 ([4]; Severe Hepatic Impairment): 322 (68) h
1 Log Kill mg/kg/72 h ([5]; MRSA, 6 days of therapy): 62 mg/kg/72 h
2 Log Kill mg/kg/72 h ([5]; MRSA, 6 days of therapy): 85 mg/kg/72 h
1 Log Kill mg/kg/72 h ([5]; Mean ± SD of S. aureus strains): 94 ± 46 mg/kg/72 h
2 Log Kill mg/kg/72 h ([5]; Mean ± SD of S. aureus strains): 120 ± 54 mg/kg/72 h
1 log kill dose ([5]; q 36 h): 36 mg/kg
1 log kill dose ([5]; q 72 h): 31 mg/kg
1 Log Kill mg/kg/72 h ([5]; SA33591, 6 days of therapy): 93 mg/kg/72 h
1 Log Kill mg/kg/72 h ([5]; SA307109, 6 days of therapy): 34 mg/kg/72 h
2 Log Kill mg/kg/72 h ([5]; SA307109, 6 days of therapy): 37 mg/kg/72 h
1 Log Kill mg/kg/72 h ([5]; SA Smith, 6 days of therapy): 95 mg/kg/72 h
drop in cfu over the 6 day study ([5]; all strains): > 4 log10
free drug AUC/MIC over the 6 days of therapy required for efficacy ([5]; net static effect, 1 or 2 log kill): ~1000
AUC ([6]; 500 mg): 24376 ± 6615 µg·h/mL
AUC14 ([6]; 1000 mg): ~22000′ mg · h/L
AUC42 ([6]; 1000 mg): 23137 ± 3326 µg·h/mL
MBC relative to MIC ([7]; S. aureus, MBC higher than MIC): 2 to 4 fold
MBC ([7]; SA25923): 0.50 µg/mL
t1/2 ([8]; ESRD Postdialysis, VER001-11, 500 mg): 14.5 days
t1/2 ([8]; ESRD Predialysis, VER001-11, 500 mg): 15.7 days
t1/2 ([8]; Mild Renal Impairment, VER001-13, 1000 mg): 16.2 days
t1/2 ([8]; Moderate Renal Impairment, VER001-13, 1000 mg): 18 days
t1/2 ([8]; Normal Renal Function, VER001-2, 1120 mg): 6.21 days
t1/2 ([8]; Normal Renal Function, VER001-11, 500 mg): 13.9 days
t1/2 ([8]; Normal Renal Function, VER001-13, 1000 mg): 17.4 days
t1/2 ([8]; Severe Renal Impairment, VER001-11, 500 mg): 18.9 days
t1/2 ([8]; Severe Renal Impairment, VER001-11, 1000 mg): 19.5 days
increase in concentrations through the first week post-dose vs normal renal function ([8]; subjects with severe renal impairment (VER001-11)): 40%
